According to patent publication US20020115640A1, “Farnesyltransferase inhibitors” (priority 2000, published 2002):

Target: T1, farnesyltransferase (Rattus norvegicus, UniProt Q02293+Q04631)
T1 construct: The enzyme can be purified according to Cell, 62: 81-88 (1990), utilizing steps one, two, and three; from tissue; host or cells: rat brain
Assay: Inhibition of farnesyltransferase (3H-farnesyldiphosphate / H-Ras filter assay)
Assay type: biochemical
Conditions: test compound at 10^−7 M; 3H-farnesyldiphosphate 0.6 μM, H-Ras 5.0 μM, 37° C., 30 minutes
Description: The ability of the compounds of the present invention to inhibit farnesyltransferase can be measured according to the method described in J. Biol. Chem., 266: 14603 (1991) or J. Biol. Chem., 270:660-664 (1995). Procedures for determination of the inhibition of farnesylation of the oncogene protein Ras are described in J. Biol. Chem., 266:15575-15578 (1991) and U.S. Pat. No. 5,245,061. Inhibition of rat brain farnesyltransferase can also be measured in vitro using an Amersham Life Science commercial scintillation proximity assay kit and substituting a biotin-K Ras B fragment (0.1 μM final concentration) for the biotin-lamin substrate provided by Amersham. The enzyme can be purified according to Cell, 62: 81-88 (1990), utilizing steps one, two, and three. […] The percent inhibition of the farnesylation caused by the compounds of the present invention (at 10^−6 M) compared to an uninhibited control sample can be evaluated in the same Amersham test system.
The mixture was brought to 37° C., treated with enzyme, incubated for 30 minutes, treated with 1 M HCl/ethanol (1 mL) to stop the reaction, stirred for 15 minutes at room temperature, diluted with ethanol (2 mL), filtered through a 2.5 cm glass microfiber filter (Whatman) with ethanol rinses (4×2 mL). The glass transferred to a scintillation vial and treated with scintillation fluid (5 mL). The radioisotope retained on the glass fiber filter was counted and reflected the activity of the enzyme.

T1 sequence (Q02293 whole entry, one chain of several): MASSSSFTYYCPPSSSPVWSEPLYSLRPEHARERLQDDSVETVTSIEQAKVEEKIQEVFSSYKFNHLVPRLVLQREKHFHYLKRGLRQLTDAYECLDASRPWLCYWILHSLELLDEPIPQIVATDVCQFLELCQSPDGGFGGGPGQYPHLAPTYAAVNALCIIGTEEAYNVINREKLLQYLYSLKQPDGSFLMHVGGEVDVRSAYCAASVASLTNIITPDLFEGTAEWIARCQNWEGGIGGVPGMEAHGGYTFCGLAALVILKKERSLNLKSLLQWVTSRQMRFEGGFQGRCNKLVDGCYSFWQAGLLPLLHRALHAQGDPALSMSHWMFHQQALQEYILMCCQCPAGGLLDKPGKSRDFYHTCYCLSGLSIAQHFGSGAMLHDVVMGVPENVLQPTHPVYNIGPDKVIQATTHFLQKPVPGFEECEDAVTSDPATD

Row | SMILES | inhibition at 0.1 µM [%]
1 | Cn1cncc1C(OCc1ccc(C#N)cc1-c1cccc(Cl)c1)c1ccc(C#N)cc1 (centres unmarked) [Example 34, 3′-chloro-6-(((4-cyanophenyl)(1-methyl-1H-imidazol-5-yl)methoxy)methyl)(1,1′-biphenyl)-3-carbonitrile] | > 97
2 | Cn1cncc1C(OCc1ccc(Cl)nc1-c1cccc(Cl)c1)c1ccc(C#N)cc1 (centres unmarked) [Example 35, 4-(((6-chloro-2-(3-chlorophenyl)-3-pyridinyl)methoxy)(1-methyl-1H-imidazol-5-yl)methyl)benzonitrile] | 96
3 | Cc1ccc(COC(c2ccc(C#N)cc2)c2cncn2C)c(-c2cccc(Cl)c2)n1 (centres unmarked) [Example 36, 4-(((2-(3-chlorophenyl)-6-methyl-3-pyridinyl)methoxy)(1-methyl-1H-imidazol-5-yl)methyl)benzonitrile] | 70
4 | Cn1cncc1C(O)(C#Cc1ccc(Cl)cc1-c1cccc(Cl)c1)c1ccc(C#N)cc1 (centres unmarked) [Example 37, 4-(3-(3′,5-dichloro(1,1′-biphenyl)-2-yl)-1-hydroxy-1-(1-methyl-1H-imidazol-5-yl)-2-propynyl)benzonitrile] | > 96
5 | Cn1cncc1C(OCc1cnc(F)cc1-c1cccc(Cl)c1)c1ccc(C#N)cc1 (centres unmarked) [Example 38, 4-(((4-(3-chlorophenyl)-6-fluoro-3-pyridinyl)methoxy)(1-methyl-1H-imidazol-5-yl)methyl)benzonitrile] | 80
6 | COc1cc(-c2cccc(Cl)c2)c(COC(c2ccc(C#N)cc2)c2cncn2C)cn1 (centres unmarked) [Example 39, 4-(((4-(3-chlorophenyl)-6-methoxy-3-pyridinyl)methoxy)(1-methyl-1H-imidazol-5-yl)methyl)benzonitrile] | 74
7 | Cn1cncc1C(OCc1cnc(C#N)cc1-c1cccc(Cl)c1)c1ccc(C#N)cc1 (centres unmarked) [Example 40, 4-(3-chlorophenyl)-5-(((4-cyanophenyl)(1-methyl-1H-imidazol-5-yl)methoxy)methyl)-2-pyridinecarbonitrile] | > 83
8 | Cn1cncc1C(NC(=O)c1cn(C)c(=O)cc1-c1cccc(Cl)c1)c1ccc(C#N)cc1 (centres unmarked) [Example 41, 4-(3-chlorophenyl)-N-((4-cyanophenyl)(1-methyl-1H-imidazol-5-yl)methyl)-1-methyl-6-oxo-1,6-dihydro-3-pyridinecarboxamide] | 10
9 | Cn1cncc1C(OCc1cc(=O)c(C#N)cn1-c1cccc(Cl)c1)c1ccc(C#N)cc1 (centres unmarked) [Example 42, 1-(3-chlorophenyl)-6-(((4-cyanophenyl)(1-methyl-1H-imidazol-5-yl)methoxy)methyl)-4-oxo-1,4-dihydro-3-pyridinecarbonitrile] | 87
10 | Cn1cncc1C(OCc1c[nH]c(=O)cc1-c1cccc(Cl)c1)c1ccc(C#N)cc1 (centres unmarked) [Example 44, 4-(((4-(3-chlorophenyl)-6-oxo-1,6-dihydro-3-pyridinyl)methoxy)(1-methyl-1H-imidazol-5-yl)methyl)benzonitrile] | 89
11 | Cn1cncc1C(OCc1cn(C)c(=O)cc1-c1cccc(Cl)c1)c1ccc(C#N)cc1 (centres unmarked) [Example 45, 4-(((4-(3-chlorophenyl)-1-methyl-6-oxo-1,6-dihydro-3-pyridinyl)methoxy)(1-methyl-1H-imidazol-5-yl)methyl)benzonitrile] | 87
12 | Cn1cncc1C(OCc1ccc(C#N)cc1NS(=O)(=O)c1cccs1)c1ccc(C#N)cc1 (centres unmarked) [Example 46, N-(5-cyano-2-(((4-cyanophenyl)(1-methyl-1H-imidazol-5-yl)methoxy)methyl)phenyl)-2-thiophenesulfonamide] | 100
13 | Cc1ccc(S(=O)(=O)Nc2cc(C#N)ccc2COC(c2ccc(C#N)cc2)c2cncn2C)cc1 (centres unmarked) [Example 47, N-(5-cyano-2-(((4-cyanophenyl)(1-methyl-1H-imidazol-5-yl)methoxy)methyl)phenyl)-4-methylbenzenesulfonamide] | 100
14 | Cn1cncc1C(OCc1c(-c2cccc(Cl)c2)cc(C#N)c(=O)n1C)c1ccc(C#N)c(F)c1 (centres unmarked) [Example 52, 5-(3-chlorophenyl)-6-(((4-cyano-3-fluorophenyl)(1-methyl-1H-imidazol-5-yl)methoxy)methyl)-1-methyl-2-oxo-1,2-dihydro-3-pyridinecarbonitrile] | 100
15 | Cn1cncc1C(OCc1c(-c2cccc(Cl)c2)cc(C#N)c(=O)n1C)c1ccc(C#N)cc1F (centres unmarked) [Example 53, 5-(3-chlorophenyl)-6-(((4-cyano-2-fluorophenyl)(1-methyl-1H-imidazol-5-yl)methoxy)methyl)-1-methyl-2-oxo-1,2-dihydro-3-pyridinecarbonitrile] | 100
16 | Cn1cncc1C(OCc1c(-c2cccc(Cl)c2)cc(C#N)c(=O)n1C)c1ccc(C#N)c(Cl)c1 (centres unmarked) [Example 54, 6-(((3-chloro-4-cyanophenyl)(1-methyl-1H-imidazol-5-yl)methoxy)methyl)-5-(3-chlorophenyl)-1-methyl-2-oxo-1,2-dihydro-3-pyridinecarbonitrile] | 100

Same assay, conditions: test compound at 10^−8 M; 3H-farnesyldiphosphate 0.6 μM, H-Ras 5.0 μM, 37° C., 30 minutes

Row | SMILES | inhibition at 0.01 µM [%] | % Inhibition at 10^−8 M [%]
17 | Cn1cncc1C(O)(COc1ccc(C#N)cc1-c1ccc2c(c1)OCO2)c1ccc(C#N)cc1 (centres unmarked) [Example 55, 3-(1,3-benzodioxol-5-yl)-4-(2-(4-cyanophenyl)-2-hydroxy-2-(1-methyl-1H-imidazol-5-yl)ethoxy)benzonitrile] | 98 | –
18 | Cn1cncc1C(F)(COc1ccc(C#N)cc1-c1ccc2c(c1)OCO2)c1ccc(C#N)cc1 (centres unmarked) [Example 56, 3-(1,3-benzodioxol-5-yl)-4-(2-(4-cyanophenyl)-2-fluoro-2-(1-methyl-1H-imidazol-5-yl)ethoxy)benzonitrile] | 97 | –
19 | COc1cccc(-c2cc(C#N)ccc2OCC(O)(c2ccc(C#N)cc2)c2cncn2C)c1 (centres unmarked) [Example 57, 6-(2-(4-cyanophenyl)-2-hydroxy-2-(1-methyl-1H-imidazol-5-yl)ethoxy)-3′-methoxy-1,1′-biphenyl-3-carbonitrile] | 98 | –
20 | Cn1cncc1C(O)(COc1ccc(C#N)cc1-c1cccc2cccnc12)c1ccc(C#N)cc1 (centres unmarked) [Example 59, 4-(2-(4-cyanophenyl)-2-hydroxy-2-(1-methyl-1H-imidazol-5-yl)ethoxy)-3-quinolin-8-ylbenzonitrile] | 83 | –
21 | Cn1cncc1C(F)(COc1ccc(C#N)cc1-c1cccc2cccnc12)c1ccc(C#N)cc1 (centres unmarked) [Example 60, 4-(2-(4-cyanophenyl)-2-fluoro-2-(1-methyl-1H-imidazol-5-yl)ethoxy)-3-quinolin-8-ylbenzonitrile] | 73 | –
22 | Cn1cncc1C(O)(COc1ccc(C#N)cc1-c1ccc(F)c(F)c1)c1ccc(C#N)cc1 (centres unmarked) [Example 61, 6-(2-(4-cyanophenyl)-2-hydroxy-2-(1-methyl-1H-imidazol-5-yl)ethoxy)-3′,4′-difluoro-1,1′-biphenyl-3-carbonitrile] | 96 | –
23 | Cn1cncc1C(F)(COc1ccc(C#N)cc1-c1ccc(F)c(F)c1)c1ccc(C#N)cc1 (centres unmarked) [Example 62, 6-(2-(4-cyanophenyl)-2-fluoro-2-(1-methyl-1H-imidazol-5-yl)ethoxy)-3′,4′-difluoro-1,1′-biphenyl-3-carbonitrile] | 93 | –
24 | Cn1cncc1C(O)(COc1ccc(C#N)cc1-c1ccc(OC(F)(F)F)cc1)c1ccc(C#N)cc1 (centres unmarked) [Example 63, 6-(2-(4-cyanophenyl)-2-hydroxy-2-(1-methyl-1H-imidazol-5-yl)ethoxy)-4′-(trifluoromethoxy)-1,1′-biphenyl-3-carbonitrile] | – | 97
25 | Cn1cncc1C(F)(COc1ccc(C#N)cc1-c1ccc(OC(F)(F)F)cc1)c1ccc(C#N)cc1 (centres unmarked) [Example 64, 6-(2-(4-cyanophenyl)-2-fluoro-2-(1-methyl-1H-imidazol-5-yl)ethoxy)-4′-(trifluoromethoxy)-1,1′-biphenyl-3-carbonitrile] | 90 | –
26 | Cn1cncc1C(F)(COc1ccc(C#N)cc1-c1ccc(F)c(Cl)c1)c1ccc(C#N)cc1 (centres unmarked) [Example 66, 3′-chloro-6-(2-(4-cyanophenyl)-2-fluoro-2-(1-methyl-1H-imidazol-5-yl)ethoxy)-4′-fluoro-1,1′-biphenyl-3-carbonitrile] | 93 | –
27 | Cn1cncc1C(O)(COc1ccc(C#N)cc1-c1cc(F)cc(F)c1)c1ccc(C#N)cc1 (centres unmarked) [Example 67, 6-(2-(4-cyanophenyl)-2-hydroxy-2-(1-methyl-1H-imidazol-5-yl)ethoxy)-3′,5′-difluoro-1,1′-biphenyl-3-carbonitrile] | 94 | –
28 | Cn1cncc1C(F)(COc1ccc(C#N)cc1-c1cc(F)cc(F)c1)c1ccc(C#N)cc1 (centres unmarked) [Example 68, 6-(2-(4-cyanophenyl)-2-fluoro-2-(1-methyl-1H-imidazol-5-yl)ethoxy)-3′,5′-difluoro-1,1′-biphenyl-3-carbonitrile] | 91 | –

Same assay, conditions: test compound at 10^−9 M (stated in the cell); 3H-farnesyldiphosphate 0.6 μM, H-Ras 5.0 μM, 37° C., 30 minutes

Row | SMILES | inhibition at 0.001 µM [%]
29 | Cn1cncc1C(O)(COc1ccc(C#N)cc1-c1ccc(F)c(Cl)c1)c1ccc(C#N)cc1 (centres unmarked) [Example 65, 3′-chloro-6-(2-(4-cyanophenyl)-2-hydroxy-2-(1-methyl-1H-imidazol-5-yl)ethoxy)4′-fluoro-1,1′-biphenyl-3-carbonitrile] | 75
